The source of these data is US20170296566A9, “METHODS AND COMPOSITIONS FOR TREATING AND/OR PREVENTING MUCOSITIS” (GLYCOMIMETICS, INC., priority 2013, published 2017).

Bounds are passed on as bounds.

This test deals with T1, E-selectin (Homo sapiens, UniProt P16581).
T1 construct: fused on or other part: Immunoglobulin (Ig) portion fused to E-selectin as a handle for immobilisation
T1 sequence (P16581 22-175 limits assumed): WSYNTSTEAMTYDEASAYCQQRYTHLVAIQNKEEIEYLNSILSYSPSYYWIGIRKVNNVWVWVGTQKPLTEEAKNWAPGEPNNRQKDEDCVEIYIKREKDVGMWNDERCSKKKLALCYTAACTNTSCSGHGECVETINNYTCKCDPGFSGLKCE
Briefly: E-selectin competitive binding assay (inhibition of sLe^a binding to immobilized E-selectin/Ig chimera). The settings on record: biotinylated sLe^a polyacrylamide with streptavidin/HRP, TMB, 450 nm, read-out: IC50 (μM), E-Selectin Antagonist Activity. The procedure:
The inhibition assay to screen for and characterize glycomimetic antagonists of E-selectin is a competitive binding assay, which allows the determination of IC50 values. E-selectin/Ig chimera was immobilized in 96 well microtiter plates by incubation at 37° C. for 2 hours. To reduce nonspecific binding, bovine serum albumin was added to each well and incubated at room temperature for 2 hours. The plate was washed and serial dilutions of the test compounds were added to the wells in the presence of conjugates of biotinylated, sLe^a polyacrylamide with streptavidin/horseradish peroxidase and incubated for 2 hours at room temperature.
To determine the amount of sLe^a bound to immobilized E-selectin after washing, the peroxidase substrate, 3,3′,5,5′ tetramethylbenzidine (TMB) was added. After 3 minutes, the enzyme reaction was stopped by the addition of H3PO4, and the absorbance of light at a wavelength of 450 nm was determined.
In addition to reporting the absolute IC50 value as measured above, relative IC50 values (rIC50) are determined by a ratio of the IC50 measured for the test compound to that of an internal control (reference) stated for each assay.
As for `CCC1CC(C(=O)OC)C[C@@H](O[C@@H]2O[C@@H](CO)[C@H](O)C(O[C@@H](CC3CCCCC3)C(=O)O)C2NC(C)=O)[C@@H]1OC1O[C@@H](C)[C@H](O)C(O)[C@@H]1O` (some centres unmarked) [Compound 22], the 50% inhibitory concentration (IC50) – broadly, the point on the concentration scale where inhibition reaches its midpoint – was less than 4 µM.

`CCC1CC(C(=O)NCCNC(=O)CCOCCOCCOCCOCCOCCOCCOCCOCCOCCOCCOCCOC)CC(OC2OC(CO)C(O)C(OC(CC3CCCCC3)C(=O)N(C)C)C2NC(C)=O)C1OC1OC(C)C(O)C(O)C1O` (centres unmarked) [Compound 45]: the IC50 is less than 4 µM.

`CCC1CC(C(=O)NCCNC(=O)c2nc(C)cs2)C[C@@H](O[C@@H]2OC(CO)[C@H](O)C(O[C@@H](CC3CCCCC3)C(=O)O)C2NC(C)=O)C1OC1O[C@@H](C)C(O)C(O)[C@@H]1O` (some centres unmarked) [Compound 28]: the IC50 was less than 4 µM.

On to `CCC1CC(C(=O)NCCNC(=O)Cc2cc(=O)oc3cc(O)ccc23)C[C@@H](O[C@@H]2OC(CO)[C@H](O)C(O[C@@H](CC3CCCCC3)C(=O)O)C2NC(C)=O)C1OC1O[C@@H](C)C(O)C(O)[C@@H]1O` (some centres unmarked) [Compound 29], for which the 50% inhibitory concentration (IC50) is less than 4 µM.

As for `CCC1CC(C(=O)OC)C[C@@H](O[C@@H]2OC(CO)[C@H](O)C(O[C@@H](CC3CCCCC3)C(=O)O)C2NC(=O)C(F)(F)F)C1OC1O[C@@H](C)C(O)C(O)[C@@H]1O` (some centres unmarked) [Compound 27], the concentration for half-maximal inhibition (IC50) is less than 4 µM.
